Laboratory results taken from article PMC7927616, “Dual‐Targeting Peptide‐Guided Approach for Precision Delivery and Cancer Monitoring by Using a Safe Upconversion Nanoplatform” (Advanced Science, 2021).

Legend:
[1] = In vivo biodistribution by ICP-MS (Gd); design: species or system BALB/c nude mice; details: mouse, iv
p65 in C666 cells = assay: NF‐κB signaling analysis by Western blotting; type: cell-based; details: Western blot band density
Text: (§1) NF‐ĸB signaling pathway is critical for the survival of EBV‐infected tumor cells. Here we investigated if our nanoprobes could affect this oncogenic pathway. EBV‐positive LCL3 and C666 cells were used as models, EBV‐negative HK1 cells were used as control and Western blot was used to analyze the protein expression of p65, a major transcription factor in the NF‐ĸB family. […] GAPDH and Histone are regarded as internal standards in cytosolic and nuclear fractions, respectively. […] This is consistent with the cellular uptake results. The negligible differences of p65 expression level in HK1 cells were quantified after various treatments in Figure S28 (Supporting Information).
(§2) EBV‐positive C666, LCL3 and EBV‐negative HK1 cell pellets were treated with phosphatase and protease inhibitors at 0–4 °C for 30 min. The total protein concentrations were calculated by protein absorbance. The protein was resolved by sodium dodecyl sulfate‐polyacrylamide gel electrophoresis (SDS‐PAGE) and transferred to cellulose filter membranes. The membranes were blocked with 3% BSA in tris‐buffered saline in 0.1% Tween 20 (TBST) for 1 h with gentle shaking and subsequently incubated with primary antibodies (1:1000) in 3% BSA in TBST at 4 °C for overnight. […] Lastly, the density of bands was determined by image analysis system after washing with TBST buffer three times.

p65 in LCL3 cells = assay: NF‐κB signaling analysis by Western blotting; type: cell-based; details: Western blot band density
Text: as §1, §2

Row | Substance | Tumor uptake [1] | Decreased p65 expression, nuclear fraction (p65 in C666 cells) | Decreased p65 expression, nuclear fraction (p65 in LCL3 cells)
1 | NaGdF4:Yb^3+, Er^3+@NaGdF4 [UCNP] | nearly undetectable |  | 
2 | ‐Ahx‐YFMVFGGRrRKGGFWLY [P5] |  | 89% | 86%
